Some results are limits rather than exact numbers.

Assay [1] concerns the target T1, human GPCR sphingosine 1-phosphate receptor 1 (S1PR1) (Homo sapiens, UniProt P21453).
T1 construct: host or cells: CHO
Briefly: S1PR1 selectivity assay (Ca2+ flux, antagonist). The class given is cell-based. To be noted: S1P1 antagonist EC50, CHO cells overexpressing human S1PR1 and Gq protein. How it is done: (§1) After readout of the agonist activity, the plates are incubated for 15 min at 37° C. and 5% CO2. Then, cells are stimulated with 10 μL Sphingosine-1-Phosphate (S1P) (Avanti Polar lipids-860492P) at its EC80 concentration. Intracellular Ca^2+ changes are immediately measured by reading fluorescence during 3 min (FDSS/μCELL reader). The ratio of the maximal fluorescence over the background fluorescence before compound injection is used to determine compound response.
(§2) For EC50 determination, a 10 point dilution series of compounds starting from 23.3 μM and 20 μM highest final concentration for agonist and antagonist respectively, ⅓ dilution was performed.
(§3) The obtained ratio's for agonist and antagonist readout were normalized versus vehicle and EC100 of S1P as controls for agonist mode and versus vehicle and EC80 of S1P for antagonist mode. From these normalized data EC50 of the compounds are derived.
(§4) To evaluate the selectivity of the compounds for S1PR2 over S1PR1 and S1PR5, a similar assay set up as described above for the S1PR2 calcium flux assays was performed: CHO cells stably overexpressing human GPCR sphingosine 1-phosphate receptor 1 and Gq protein (Euroscreen, FAST-0197A) or overexpressing human GPCR sphingosine 1-phosphate receptor 5 and Gq protein were used (Perkin Elmer, ES-593-A). In case of the S1PR5 assay triggering was done with an S1PR5 specific agonist instead of with S1P (Hobson et al., 2015).

Assay [2] addresses T2, human GPCR sphingosine 1-phosphate receptor 5 (S1PR5) (Homo sapiens, UniProt Q9H228).
T2 construct: host or cells: CHO
Kind of assay: S1PR5 selectivity assay (Ca2+ flux, antagonist, S1PR5 specific agonist trigger). The format is cell-based. The settings on record: S1P5 antagonist EC50, CHO cells overexpressing human S1PR5 and Gq protein. How it is done:
as §1, §2, §3, §4

Assay [3] addresses T3, human GPCR sphingosine 1-phosphate receptor 2 (S1PR2) (Homo sapiens, UniProt O95136).
T3 construct: host or cells: CHO
Briefly: S1P2 antagonist assay (Ca2+ flux, S1P at EC80). The class given is cell-based. To be noted: CHO-S1PR2 cells, highest concentration 20 μM. The method, then:
Triggering of S1PR2 by administration of Sphingosine-1-phosphate leads to a transient increase in intracellular Ca^2+. The Ca^2+ flux assays are measuring the release of Ca^2+ intracellularly by use of a Ca^2+ sensitive fluorescent dye. The assay is firstly run in agonist mode (incubation of compounds alone) to ensure that the Ca^2+ released measured is not caused by the test compound having an agonistic effect. Then the assay is continued in antagonist mode (Sphingosine-1-Phosphate added to incubated medium containing the test compounds).
CHO cells stably overexpressing human GPCR sphingosine 1-phosphate receptor 2 (CHO—S1PR2 Perkin Elmer; ES-594-A) are seeded from a frozen stock in 384 wells sterile microplates (50 μL; 7,500 cells/well) and are incubated overnight at 37° C. and 5% CO2. The next day cells are washed twice with starvation medium (F-12 Ham's medium containing 0.1% BSA (Fatty acid free: FAF)) and left in […] starvation medium for 1 h at 37° C., 5% CO2. After this starvation cells are incubated with […] buffer containing the Ca^2+-sensitive fluorescent dye (0.5 mg Fluo8+125 mg Allura Red in 100 ml of 1% DMSO, in HBSS+20 mM Hepes+5 mM probenecid). The cells are incubated for an additional 1 hour after which 10 μL compounds, diluted in HBSS buffer with 20 mM Hepes and 0.1% BSA (FAF), are added to the cells and intracellular Ca^2+ changes are immediately measured by reading fluorescence during 3 min (FDSS/μCELL reader). The ratio of the maximal fluorescence over the background fluorescence before compound injection is used to determine compound response.
as §1, §2, §3

A further assay deals with T4, S1PR2 (Homo sapiens, UniProt O95136).
T4 construct: expressed in transfected cells
T4 sequence (O95136 whole entry): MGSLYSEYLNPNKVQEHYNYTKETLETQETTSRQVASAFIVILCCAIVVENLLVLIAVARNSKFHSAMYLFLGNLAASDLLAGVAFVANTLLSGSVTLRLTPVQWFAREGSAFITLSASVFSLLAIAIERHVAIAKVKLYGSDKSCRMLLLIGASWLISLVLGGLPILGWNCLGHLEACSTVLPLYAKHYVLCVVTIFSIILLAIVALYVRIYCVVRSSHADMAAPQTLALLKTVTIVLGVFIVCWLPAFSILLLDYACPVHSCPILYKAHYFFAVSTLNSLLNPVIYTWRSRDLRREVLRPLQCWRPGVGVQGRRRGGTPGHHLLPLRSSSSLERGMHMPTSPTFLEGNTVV
Briefly: GTP-γS binding assay ([35S]GTPγS, S1P at EC80, S1PR2 membranes). The format is biochemical. The settings on record: membranes from stable cell line over expressing S1PR2, read-out: S1PR2 EC. How it is done: The following assay can be used for determination of S1PR2 activation. The [^35S] GTPγS assay measures the level of G protein activation following agonist occupation of a GPCR, by determining the binding of the non-hydrolysable analog [^35S] GTPγS to Gα subunits.
The assay is performed in a 96 well plate where the following reagents are added. First 50 μL compound is added into the assay plate, followed by addition of 20 μL S1P at EC80 concentration (concentration which gives 80% of the activity of S1PR2). Then, 30 μL of a mixture consisting of membranes-GTPγS-SpA beads is added [mixture consists of 2.5 μg/well membranes derived from stable cell line over expressing S1PR2 (membranes are pre-incubated with 1 μM GDP for 15 min at 4° C.), 0.1 nM [35S]GTPγS (Perkin Elmer, NEG030) and 0.5 mg/well PVT-WGA SpA beads (Perkin Elmer, RPNQ0001)]. All components are diluted in assay buffer containing 20 mM Tris pH 7.5; 10 mM MgCl2; 100 mM NaCl; 0.1% BSA FAF; 50 ug/ml saponin. After an incubation for 4 h at room temperature, plates are centrifuged at 2000 rpm during 20 min. Plates are read on a Topcount reader (Perkin Elmer) immediately after centrifugation (readout time, 1 min/well).

T2 sequence (Q9H228 whole entry): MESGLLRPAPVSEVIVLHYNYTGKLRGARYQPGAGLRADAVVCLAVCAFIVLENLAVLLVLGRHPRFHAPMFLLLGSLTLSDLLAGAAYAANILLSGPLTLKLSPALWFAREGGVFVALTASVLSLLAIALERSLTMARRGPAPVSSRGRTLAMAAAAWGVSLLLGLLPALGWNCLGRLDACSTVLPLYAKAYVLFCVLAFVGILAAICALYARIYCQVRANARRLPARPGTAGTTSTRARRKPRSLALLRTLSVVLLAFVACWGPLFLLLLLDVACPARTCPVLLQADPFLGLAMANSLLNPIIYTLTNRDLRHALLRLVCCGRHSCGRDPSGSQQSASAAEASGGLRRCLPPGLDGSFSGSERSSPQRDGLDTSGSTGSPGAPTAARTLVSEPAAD
T3 sequence (O95136 whole entry): as the sequence (O95136 whole entry) above
T1 sequence (P21453 whole entry): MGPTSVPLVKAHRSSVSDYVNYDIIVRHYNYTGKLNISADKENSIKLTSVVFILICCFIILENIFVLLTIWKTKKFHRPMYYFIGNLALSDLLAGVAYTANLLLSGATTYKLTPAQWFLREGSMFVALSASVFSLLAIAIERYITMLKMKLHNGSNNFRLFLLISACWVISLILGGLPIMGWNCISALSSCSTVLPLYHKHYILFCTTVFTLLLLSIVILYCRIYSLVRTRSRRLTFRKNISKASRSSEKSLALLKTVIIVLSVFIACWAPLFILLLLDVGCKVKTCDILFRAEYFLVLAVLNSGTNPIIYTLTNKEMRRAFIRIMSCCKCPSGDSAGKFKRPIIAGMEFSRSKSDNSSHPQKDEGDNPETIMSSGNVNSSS

On to `CCOc1cc(NC(=O)NCc2cc(C)c(-c3cn(COC)nc3C(F)(F)F)nn2)cc(Cl)n1` [Compound 15], for which the EC50 in assay [1] was 6610 nM; in assay [2] it was at least 19800 nM; in assay [3], 9.2 nM; on S1PR2 it was 91.6 nM.

In the case of `Cc1cc(CNC(=O)Nc2cc(OC3CCOC3)nc(C(F)(F)F)c2)nnc1-c1cn(C)nc1C(F)(F)F` (stereo not drawn) [Compound 26, 1-[[5-methyl-6-[1-methyl-3-(trifluoromethyl)pyrazol-4-yl]pyridazin-3-yl]methyl]-3-[2-tetrahydrofuran-3-yloxy-6-(trifluoromethyl)-4-pyridyl]urea], the EC50 in assay [1] is at least 19800 nM; in assay [2], at least 19800 nM; in assay [3] it was 110 nM; at S1PR2, 770 nM.

For `Cc1cc(CNC(=O)Nc2cc(OCC(C)(F)F)nc(C(F)(F)F)c2)nnc1-c1cn(C)nc1C(F)(F)F` [Compound 34, 1-[2-(2,2-difluoropropoxy)-6-(trifluoromethyl)-4-pyridyl]-3-[[5-methyl-6-[1-methyl-3-(trifluoromethyl)pyrazol-4-yl]pyridazin-3-yl]methyl]urea], the EC50 in assay [1] is 2020 nM; in assay [2], 6610 nM; in assay [3], 65.8 nM; on S1PR2, 408 nM.

`Cn1cc(-c2nnc(CNC(=O)Nc3cc(Cl)nc(OCC(F)F)c3)cc2C2CC2)c(C(F)(F)F)n1` [Compound 61, 1-[2-chloro-6-(2,2-difluoroethoxy)-4-pyridyl]-3-[[5-cyclopropyl-6-[1-methyl-3-(trifluoromethyl)pyrazol-4-yl]pyridazin-3-yl]methyl]urea]: the EC50 in assay [1] came out at 919 nM; in assay [2], 4040 nM; in assay [3] it was 14 nM; at S1PR2, 193 nM.

Turning to `CCOc1nc(C#N)cc(NC(=O)NCc2cc(C)c(-c3cn(C)nc3C(F)(F)F)nn2)c1C1CC1` [Compound 58, 1-(6-cyano-3-cyclopropyl-2-ethoxy-4-pyridyl)-3-[[5-methyl-6-[1-methyl-3-(trifluoromethyl)pyrazol-4-yl]pyridazin-3-yl]methyl]urea], the EC50 was at least 19800 nM in assay [1], at least 19800 nM in assay [2], 69.6 nM in assay [3] and 223 nM on S1PR2.

Take `CCOc1ncc(NC(=O)NCc2cc(C)c(-c3cn(C)nc3C(F)(F)F)nn2)cc1C(F)(F)F` [Compound 10, 1-[6-ethoxy-5(trifluoromethyl)-3-pyridyl]-3-[[5-methyl-6-[1-methyl-3-(trifluoromethyl)pyrazol-4-yl]pyridazin-3-yl]methyl]urea]: the EC50 was at least 19800 nM in assay [1], at least 19800 nM in assay [2], 15 nM in assay [3] and 281 nM at S1PR2.

With `CCOc1cc(NC(=O)NCc2cc(C)c(-c3cn(C)nc3C(F)(F)F)nn2)cnc1Cl` [Compound 24, 1-(6-chloro-5-ethoxy-3-pyridyl)-3-[[5-methyl-6-[1-methyl-3-(trifluoromethyl)pyrazol-4-yl]pyridazin-3-yl]methyl]urea], the EC50 was at least 19800 nM in assay [1], at least 19800 nM in assay [2], 8.7 nM in assay [3] and 53.8 nM on S1PR2.

In the case of `Cc1cc(CNC(=O)Nc2cc(OCC3COCCO3)nc(C(F)(F)F)c2)nnc1-c1cn(C)nc1C(F)(F)F` (stereo not drawn) [Compound 37, 1-[2-(1,4-dioxan-2-ylmethoxy)-6-(trifluoromethyl)4-pyridyl]-3-[[5-methyl-6-[1-methyl-3-(trifluoromethyl)pyrazol-4-yl]pyridazin-3-yl]methyl]urea], the EC50 in assay [1] was at least 19800 nM; in assay [2], at least 19800 nM; in assay [3], 5430 nM; at S1PR2, 9580 nM.

Regarding `Cn1cc(-c2nnc(CNC(=O)Nc3cc(Cl)nc(OCC(F)F)c3)cc2N2CCOCC2)c(C(F)(F)F)n1` [Compound 62, 1-[2-chloro-6-(2,2-difluoroethoxy)-4-pyridyl]-3-[[6-[1-methyl-3-(trifluoromethyl)pyrazol-4-yl]-5-morpholino-pyridazin-3-yl]methyl]urea], the EC50 in assay [1] worked out at 345 nM; in assay [2], 11000 nM; in assay [3], 3130 nM; on S1PR2, 2370 nM.

As to `COCCOc1cc(NC(=O)NCc2cc(C)c(-c3cn(C)nc3C(F)(F)F)nn2)cc(Cl)n1` [Compound 27, 1-[2-chloro-6-(2-methoxyethoxy)-4-pyridyl]-3-[[5-methyl-6-[1-methyl-3-(trifluoromethyl)pyrazol-4-yl]pyridazin-3-yl]methyl]urea], the EC50 in assay [1] is at least 19800 nM; in assay [2], at least 19800 nM; in assay [3] it was 414 nM; at S1PR2, 641 nM.

On to `Cc1cc(CNC(=O)Nc2cnc(Cl)c(OCC(F)F)c2)nnc1-c1cn(C)nc1C(F)(F)F` [Compound 23, 1-[6-chloro-5-(2,2-difluoroethoxy)-3-pyridyl]-3-[[5-methyl-6-[1-methyl-3-(trifluoromethyl)pyrazol-4-yl]pyridazin-3-yl]methyl]urea], for which the EC50 was at least 19800 nM in assay [1], at least 19800 nM in assay [2], 10.6 nM in assay [3] and 74.5 nM at S1PR2.

`Cc1cc(CNC(=O)Nc2cc(Cl)nc(OCC(F)F)c2)nnc1-c1cn(C)nc1C(F)(F)F` [Compound 17, 1-[2-chloro-6-(2,2-difluoroethoxy)-4-pyridyl]-3-[[5-methyl-6-[1-methyl-3-(trifluoromethyl)pyrazol-4-yl]pyridazin-3-yl]methyl]urea]: the EC50 turned out to be 4940 nM in assay [1], 6610 nM in assay [2], 8.6 nM in assay [3] and 36.1 nM at S1PR2.

Source of the values: US20190388421A1, “NOVEL COMPOUNDS AND PHARMACEUTICAL COMPOSITIONS THEREOF FOR THE TREATMENT OF FIBROSIS” (Galapagos NV, priority 2016, published 2019).
